ChEMBL document CHEMBL1133906, “Leishmanicidal activity of some stilbenoids and related heterocyclic compounds” (Bioorg Med Chem Lett, 2001)
In brackets after ≈: the same amount, converted by molar mass.

How the values were obtained:
Format in all cases: functional, organism-based
Leishmania braziliensis = assay: In vitro inhibitory activity against Leishmania braziliensis (M2903)
Leishmania donovani = assay: In vitro inhibitory activity against Leishmania donovani (PP75)
Leishmania amazonensis = assay: In vitro inhibitory activity against Leishmania amazonensis (PH8)

SMILES	IC50 (Leishmania braziliensis)	IC50 (Leishmania donovani)	IC50 (Leishmania amazonensis)
Oc1nnc(Cc2ccc3c(c2)OCO3)c2ccccc12	≥ 100 µg/mL	≥ 100 µg/mL	≥ 100 µg/mL
COc1ccc(Cc2nn(C)c(=O)c3ccccc23)cc1	≥ 100 µg/mL	≥ 100 µg/mL	≥ 100 µg/mL
COc1cc(CC(=O)c2ccccc2C(=O)N2CCCCC2)cc(OC)c1OC	7 µg/mL (≈ 17.6 µM)	20 µg/mL (≈ 50.3 µM)	10 µg/mL (≈ 25.2 µM)
O=C(Cc1ccc2c(c1)OCO2)c1ccccc1C(=O)N1CCCCC1	≥ 100 µg/mL	≥ 100 µg/mL	≥ 100 µg/mL
O=C(Cc1ccc(Cl)cc1)c1ccccc1C(=O)N1CCCCC1	≥ 100 µg/mL	≥ 100 µg/mL	≥ 100 µg/mL
OC1(Cc2ccccc2)c2ccccc2C2=NCCCN21 (stereo unspecified)	45 µg/mL (≈ 162 µM)	45 µg/mL (≈ 162 µM)	45 µg/mL (≈ 162 µM)
COc1ccc(CC2(O)c3ccccc3C(=O)N2NC(C)(C)C)cc1 (stereo unspecified)	≥ 100 µg/mL	≥ 100 µg/mL	≥ 100 µg/mL
COc1cc(CC2(O)c3ccccc3C3=NCCN32)cc(OC)c1OC (stereo unspecified)	≥ 100 µg/mL	≥ 100 µg/mL	≥ 100 µg/mL
COc1ccc(CCc2cc(O)cc(OC)c2C(=O)O)cc1 [ISONOTHOLAENIC ACID]	32 µg/mL (≈ 106 µM)	32 µg/mL (≈ 106 µM)	32 µg/mL (≈ 106 µM)
COc1ccc(CC(=O)c2ccccc2C(=O)N2CCCCC2)cc1	≥ 100 µg/mL	≥ 100 µg/mL	≥ 100 µg/mL
COc1cc(Cc2nn(C)c(=O)c3ccccc23)cc(OC)c1OC	≥ 100 µg/mL	≥ 100 µg/mL	≥ 100 µg/mL
COC(=O)c1c(CCc2ccc(OC)cc2)cc(O)cc1OC	≥ 100 µg/mL	≥ 100 µg/mL	≥ 100 µg/mL
COc1ccc(CC(=O)c2ccccc2C(=O)N2CCCCC2)cc1OC	≥ 100 µg/mL	≥ 100 µg/mL	≥ 100 µg/mL
COc1ccc(CCc2cc(O)cc(OC)c2C(=O)N2CCCCC2)cc1	10 µg/mL (≈ 27.1 µM)	7 µg/mL (≈ 18.9 µM)	7 µg/mL (≈ 18.9 µM)
COc1ccc(/C=C2/c3ccccc3C(=O)N2NC(C)(C)C)cc1	≥ 100 µg/mL	≥ 100 µg/mL	≥ 100 µg/mL
COc1ccc(Cc2nnc(O)c3ccccc23)cc1OC	≥ 100 µg/mL	≥ 100 µg/mL	≥ 100 µg/mL
COc1ccc(C(=O)C(=O)c2ccccc2C(=O)N2CCCCC2)cc1	80 µg/mL (≈ 228 µM)	80 µg/mL (≈ 228 µM)	≥ 100 µg/mL
OC1(Cc2ccc3c(c2)OCO3)c2ccccc2C2=NCCCN21 (stereo unspecified)	≥ 100 µg/mL	≥ 100 µg/mL	≥ 100 µg/mL
COc1ccc(CCc2cc(OC(C)=O)cc(OC)c2C(=O)O)cc1	62 µg/mL (≈ 180 µM)	62 µg/mL (≈ 180 µM)	62 µg/mL (≈ 180 µM)
COc1ccc(/C=C2\OC(=O)c3ccccc32)cc1OC	≥ 100 µg/mL	≥ 100 µg/mL	≥ 100 µg/mL
OC1(Cc2ccccc2)c2ccccc2C2=NCCN21 (stereo unspecified)	60 µg/mL (≈ 227 µM)	60 µg/mL (≈ 227 µM)	60 µg/mL (≈ 227 µM)
COc1ccc(CC2(O)c3ccccc3C3=NCCN32)cc1OC (stereo unspecified)	≥ 100 µg/mL	≥ 100 µg/mL	≥ 100 µg/mL
CCN(CC)C(=O)c1ccccc1C(=O)C(=O)c1ccc(OC)cc1	75 µg/mL (≈ 221 µM)	75 µg/mL (≈ 221 µM)	75 µg/mL (≈ 221 µM)
OC1(Cc2ccc(Cl)cc2)c2ccccc2C2=NCCCN21 (stereo unspecified)	≥ 100 µg/mL	≥ 100 µg/mL	≥ 100 µg/mL
COc1ccc(CCc2cc(O)cc(OC)c2)cc1	≥ 100 µg/mL	≥ 100 µg/mL	≥ 100 µg/mL
COc1ccc(/C=C2\OC(=O)c3ccccc32)cc1	≥ 100 µg/mL	≥ 100 µg/mL	≥ 100 µg/mL

SMILES	IC50 (Leishmania braziliensis)	IC50 (Leishmania donovani)	IC50 (Leishmania amazonensis)
O=C1O/C(=C\c2ccc(Cl)cc2)c2ccccc21	≥ 100 µg/mL	52 µg/mL (≈ 203 µM)	≥ 100 µg/mL
COc1ccc(CC2(O)c3ccccc3C3=NCCCN32)cc1 (stereo unspecified)	≥ 100 µg/mL	≥ 100 µg/mL	≥ 100 µg/mL
COc1cc(/C=C2\OC(=O)c3ccccc32)cc(OC)c1OC	≥ 100 µg/mL	≥ 100 µg/mL	52 µg/mL (≈ 166 µM)
COc1ccc(C(=O)C(=O)c2ccccc2C(=O)N2CCCC2)cc1	≥ 100 µg/mL	≥ 100 µg/mL	≥ 100 µg/mL
O=c1[nH]nc(Cc2ccccc2)c2ccccc12	≥ 100 µg/mL	≥ 100 µg/mL	≥ 100 µg/mL
Cn1nc(Cc2ccc3c(c2)OCO3)c2ccccc2c1=O	≥ 100 µg/mL	≥ 100 µg/mL	≥ 100 µg/mL
COc1ccc(CC2(O)c3ccccc3C3=NCCN32)cc1 (stereo unspecified)	≥ 100 µg/mL	≥ 100 µg/mL	≥ 100 µg/mL
COc1ccc(Cc2nn(C)c(=O)c3ccccc23)cc1OC	≥ 100 µg/mL	≥ 100 µg/mL	≥ 100 µg/mL
O=C(Cc1ccccc1)c1ccccc1C(=O)N1CCCCC1	≥ 100 µg/mL	≥ 100 µg/mL	≥ 100 µg/mL
Cn1nc(Cc2ccc(Cl)cc2)c2ccccc2c1=O	≥ 100 µg/mL	64 µg/mL (≈ 225 µM)	≥ 100 µg/mL
O=C(C(=O)c1ccccc1C(=O)N1CCCCC1)c1ccc(Cl)cc1	52 µg/mL (≈ 146 µM)	28 µg/mL (≈ 78.7 µM)	25 µg/mL (≈ 70.3 µM)
COc1cc(CC2(O)c3ccccc3C3=NCCCN32)cc(OC)c1OC (stereo unspecified)	≥ 100 µg/mL	≥ 100 µg/mL	≥ 100 µg/mL
COc1cc(C(=O)C(=O)c2ccccc2C(=O)N2CCCCC2)cc(OC)c1OC	52 µg/mL (≈ 126 µM)	52 µg/mL (≈ 126 µM)	28 µg/mL (≈ 68.1 µM)
OC1(Cc2ccc(Cl)cc2)c2ccccc2C2=NCCN21 (stereo unspecified)	≥ 100 µg/mL	≥ 100 µg/mL	≥ 100 µg/mL
COc1cc(Cc2nnc(O)c3ccccc23)cc(OC)c1OC	≥ 100 µg/mL	≥ 100 µg/mL	≥ 100 µg/mL
N=C(N)c1ccc(OCCCCCOc2ccc(C(=N)N)cc2)cc1 [PENTAMIDINE]	1.3 µg/mL (≈ 3.82 µM)	1.3 µg/mL (≈ 3.82 µM)	1.3 µg/mL (≈ 3.82 µM)
OC1(Cc2ccc3c(c2)OCO3)c2ccccc2C2=NCCN21 (stereo unspecified)	≥ 100 µg/mL	≥ 100 µg/mL	≥ 100 µg/mL
Oc1nnc(Cc2ccc(Cl)cc2)c2ccccc12	≥ 100 µg/mL	≥ 100 µg/mL	≥ 100 µg/mL
Cn1nc(Cc2ccccc2)c2ccccc2c1=O	≥ 100 µg/mL	≥ 100 µg/mL	≥ 100 µg/mL
COc1ccc(C(=O)C(=O)c2ccccc2C(=O)N2CCCCC2)cc1OC	≥ 100 µg/mL	≥ 100 µg/mL	≥ 100 µg/mL
O=C1O/C(=C\c2ccccc2)c2ccccc21	45 µg/mL (≈ 202 µM)	45 µg/mL (≈ 202 µM)	45 µg/mL (≈ 202 µM)
O=C1O/C(=C\c2ccc3c(c2)OCO3)c2ccccc21	≥ 100 µg/mL	≥ 100 µg/mL	≥ 100 µg/mL
COc1ccc(Cc2nnc(O)c3ccccc23)cc1	≥ 100 µg/mL	≥ 100 µg/mL	≥ 100 µg/mL
O=C(C(=O)c1ccccc1C(=O)N1CCCCC1)c1ccc2c(c1)OCO2	≥ 100 µg/mL	≥ 100 µg/mL	≥ 100 µg/mL
O=C(C(=O)c1ccccc1C(=O)N1CCCCC1)c1ccccc1	75 µg/mL (≈ 233 µM)	75 µg/mL (≈ 233 µM)	75 µg/mL (≈ 233 µM)
COc1ccc(CC2(O)c3ccccc3C3=NCCCN32)cc1OC (stereo unspecified)	≥ 100 µg/mL	≥ 100 µg/mL	≥ 100 µg/mL
